These results are taken from US7300930B2, “Therapeutic acridone and acridine compounds” (Cancer Research Technology Limited, priority 2000, dated 2007).

Structures are written as SMILES.

Series [1] can be described thus: Growth inhibition, sulforhodamine B (SRB) assay, CH1. It is filed as cell-based. To be noted: human, CH1 ovarian carcinoma cells, CH1, 96 hr incubation, tested as salts, read-out: Cytotoxicity - IC50 CH1. Here is the method: (§1) Growth inhibition was measured in three human ovarian carcinoma cell lines (A2780, CH1, and SKOV-3) and one human cervix carcinoma cell line (A431) using the sulforhodamine B (SRB) assay. Briefly, between 3000 and 6000 cells were seeded into the wells of 96-well microtiter plates and allowed to attach overnight. Compounds (acid addition and quaternary dimethiodide salts) were dissolved at 500 μM in water and immediately added to wells in quadruplicate at final concentrations of 0.05, 0.25, 1, 5 and 25 μM. Following an incubation period of 96 hr, remaining cells were fixed with ice-cold 10% w/v trichloroacetic acid (30 min) and stained with 0.4% SRB in 1% v/v acetic acid (15 min). Mean absorbance at 540 nm for each drug concentration was expressed as a percentage of the control untreated well absorbance, and IC50 values (concentration required to inhibit cell growth by 50%) were determined for each agent.

Series [2] is described as follows: Growth inhibition, sulforhodamine B (SRB) assay, A431. It is filed as cell-based. To be noted: human, A431 cervix carcinoma cells, A431, 96 hr incubation, tested as salts, read-out: Cytotoxicity - IC50 A431. As for the experimental part: as §1
Series [3] is described as follows: Growth inhibition, sulforhodamine B (SRB) assay, SKOV-3. It is filed as cell-based. To be noted: human, SKOV-3 ovarian carcinoma cells, SKOV-3, 96 hr incubation, tested as salts, read-out: Cytotoxicity - IC50 SKOV-3. Here is the method:
as §1

The next series addresses telomerase (Homo sapiens, UniProt O14746). Description: Modified telomeric repeat amplification protocol (TRAP) assay, cell-free. To be noted: extracts from A2780 cells, tested as salts, read-out: telIC50 (Telomerase Inhibitory Activity). It is filed as biochemical. Here is the method: The ability of compounds to inhibit telomerase in a cell-free assay was assessed with a modified TRAP assay using extracts from exponentially growing A2780 human ovarian carcinoma cells. The TRAP assay was performed in 2 steps: (a) telomerase-mediated extension of the forward primer (TS: 5′-AATCCGTCGAGCAGAGTT (SEQ ID NO:3), Oswel Ltd., Southampton, UK) contained in a 40 µL reaction mix comprising TRAP buffer (20 mM Tris-HCl (pH 8.3), 68 mM KCl, 1.5 mM MgCl2, 1 mM EGTA, 0.05% v/v Tween 20), 0.05 μg bovine serum albumin, 50 μM of each deoxynucleotide triphosphate, 0.1 μg TS primer, and 3 μCi of [α-^32P]dCTP (Amersham plc, UK). Protein (40 ng or 20 ng) was then incubated with the reaction mix+agent (acid addition and quaternary dimethiodide salts) at final concentrations of up to 50 μM for 20 min at 25° C. A lysis buffer (no protein) control, heat-inactivated protein control, and 50% protein (20 ng or 10 ng) control were included in each assay; and (b) while heating at 80° C. in a PCR block of a thermal cycler (Hybaid, UK) for 5 min to inactivate telomerase activity, 0.1 μg of reverse CX primer (3′-[…]-5′ (SEQ ID NO:4)) and 2 Units of Taq DNA polymerase (“red hot”, Advanced Biotechnologies) were added. A 3-step PCR was then performed: 94° C. for 30 s, 50° C. for 30 s, and 72° C. for 1 min for 31 cycles. Telomerase-extended PCR products in the presence or absence of compounds were then determined either by electrophoretic separation using 8% w/w acrylamide denaturing gels and analysis by phosphorimaging or autoradiography, or by harvesting on Whatman filters (25 mm glass microfibre) and analysis by liquid scintillation counting.

The nature of series [4]: Growth inhibition, sulforhodamine B (SRB) assay, A2780. It is filed as cell-based. To be noted: human, A2780 ovarian carcinoma cells, A2780, 96 hr incubation, tested as salts, read-out: Cytotoxicity - IC50 A2780. Here is the method: as §1

Chain of telomerase (O14746 whole entry): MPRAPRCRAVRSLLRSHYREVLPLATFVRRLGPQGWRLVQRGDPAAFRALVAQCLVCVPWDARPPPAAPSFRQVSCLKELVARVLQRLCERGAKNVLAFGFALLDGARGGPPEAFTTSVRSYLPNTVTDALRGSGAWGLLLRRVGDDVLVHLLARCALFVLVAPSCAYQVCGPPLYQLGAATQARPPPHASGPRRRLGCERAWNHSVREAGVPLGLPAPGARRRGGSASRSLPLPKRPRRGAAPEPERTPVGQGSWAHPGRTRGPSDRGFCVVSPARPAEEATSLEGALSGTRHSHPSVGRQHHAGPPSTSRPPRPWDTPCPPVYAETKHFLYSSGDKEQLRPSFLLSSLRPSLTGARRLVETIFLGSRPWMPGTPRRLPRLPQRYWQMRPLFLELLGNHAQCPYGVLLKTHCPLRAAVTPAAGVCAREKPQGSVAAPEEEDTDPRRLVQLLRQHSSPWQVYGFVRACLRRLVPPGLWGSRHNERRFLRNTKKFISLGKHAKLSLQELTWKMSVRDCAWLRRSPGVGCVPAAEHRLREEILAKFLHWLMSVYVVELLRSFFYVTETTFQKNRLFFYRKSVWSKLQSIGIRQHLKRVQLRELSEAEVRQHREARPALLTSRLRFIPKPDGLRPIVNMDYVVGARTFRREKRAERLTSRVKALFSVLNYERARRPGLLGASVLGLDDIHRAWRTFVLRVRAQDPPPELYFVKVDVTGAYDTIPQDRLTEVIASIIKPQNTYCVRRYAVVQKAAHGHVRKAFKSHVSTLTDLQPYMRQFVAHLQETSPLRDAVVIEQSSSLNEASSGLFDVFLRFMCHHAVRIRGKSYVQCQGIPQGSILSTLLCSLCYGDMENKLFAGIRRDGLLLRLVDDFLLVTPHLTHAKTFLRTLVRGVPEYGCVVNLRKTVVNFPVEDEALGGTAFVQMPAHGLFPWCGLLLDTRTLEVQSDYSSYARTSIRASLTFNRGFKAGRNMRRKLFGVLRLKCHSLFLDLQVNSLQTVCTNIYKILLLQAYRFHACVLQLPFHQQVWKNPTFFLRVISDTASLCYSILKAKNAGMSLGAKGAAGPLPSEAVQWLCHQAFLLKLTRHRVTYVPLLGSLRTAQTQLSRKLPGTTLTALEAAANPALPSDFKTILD

On to `O=C(CCN1CCCC1)Nc1ccc2c(NCCN3CCCCC3)c3ccc(NC(=O)CCN4CCCC4)cc3nc2c1` [JH-ACI-69, N-[9-(2-Piperidin-1-yl-ethylamino)]-3,6-bis(3-pyrrolidinopropionamido)acridine], for which the IC50 at 96 h was above 25000 nM in series [1], 11200 nM in series [2], above 25000 nM in series [3] and 12600 nM in series [4]. Further, the IC50 on telomerase is 50 nM.

Regarding `CN(C)c1ccc(Nc2c3ccc(NC(=O)CCN4CC5(C)CC4CC(C)(C)C5)cc3nc3cc(NC(=O)CCN4CC5(C)CC4CC(C)(C)C5)ccc23)cc1` [JH-ACI-103, N-{9-[4′-(N,N-Dimethylamino)phenylamino]}-3,6-bis[(1,3,3-trimethyl-6-azabicyclo[3.2.1]-octanamino)propionamido]-acridine], the IC50 at 96 h in series [1] amounted to 3200 nM; in series [2], 2500 nM; in series [3], 2000 nM; in series [4] it was 1000 nM. In addition, the IC50 on telomerase stood at 140 nM.

Regarding `CC(=O)Nc1cccc(Nc2c3ccc(NC(=O)CCN4CCCC4)cc3nc3cc(NC(=O)CCN4CCCC4)ccc23)c1` [SB-ACI-14, N-{9-[(3′-Acetamido)aminophenyl]}-3,6-bis(3-pyrrolidinopropionamido)acridine], the IC50 at 96 h in series [1], in series [2], in series [3] and in series [4] was above 25000 nM throughout. Further, the IC50 on telomerase was 100 nM.

As for `O=C(CCN1CCCC1)Nc1ccc2c(NC3CCCCCC3)c3ccc(NC(=O)CCN4CCCC4)cc3nc2c1` [JH-ACI-88, N-[9-(Cycloheptylamino)]-3,6-bis(3-pyrrolidinopropionamido)acridine], the IC50 at 96 h in series [1] worked out at 2800 nM; in series [2], 3200 nM; in series [3] it was 9300 nM; in series [4], 3200 nM. The IC50 on telomerase was 210 nM.

In the case of `CN(C)CCC(=O)Nc1ccc2nc3ccc(NC(=O)CCN(C)C)cc3c(O)c2c1` [JH-ACO-22, 2,7-Bis(3-dimethylaminopropionamido)-9(10H)-acridone], the IC50 at 96 h in series [1], in series [2], in series [3] and in series [4] was above 25000 nM in each case. Also, the IC50 at telomerase was determined as 1920 nM.

As to `CN(C)c1cccc(Nc2c3ccc(NC(=O)CCN4CCCC4)cc3nc3cc(NC(=O)CCN4CCCC4)ccc23)c1` [JH-ACI-78, N-{9-[3′-(N,N-Dimethylamino)phenylamino]}-3,6-bis(3-pyrrolidinopropionamido)acridine], the IC50 at 96 h was 2000 nM in series [1], 2000 nM in series [2], 4000 nM in series [3] and 7900 nM in series [4]. Also, at telomerase, the IC50 was 100 nM.

Take `O=C(CCN1CCCCC1CO)Nc1ccc2[nH]c3ccc(NC(=O)CCN4CCCCC4CO)cc3c(=O)c2c1` (stereo not shown) [JM-ACO-12, 2,7-Bis[3-(2-hydroxymethylpiperidino)propionamido]-9(10H)-acridone]: the IC50 at 96 h in series [1], in series [2], in series [3] and in series [4] was above 25000 nM each time. For the same molecule, the IC50 at telomerase was 2330 nM.

Take `CN(C)CCNc1c2ccc(NC(=O)CCN3CCCC3)cc2nc2cc(NC(=O)CCN3CCCC3)ccc12` [SB-ACI-11, N-[9-(N,N-Dimethylethylenediamino)]-3,6-bis(3-pyrrolidinopropionamido)acridine]: the IC50 at 96 h in series [1] is 17000 nM; in series [2] it was above 25000 nM; in series [3] it was above 25000 nM; in series [4], above 25000 nM. The IC50 at telomerase came out at 18 nM.

`CC1(C)CC2CC(C)(CN2CCC(=O)Nc2ccc3c(=O)c4ccc(NC(=O)CCN5CC6(C)CC5CC(C)(C)C6)cc4[nH]c3c2)C1` [JH-ACO-32, 3,6-Bis[(1,3,3-trimethyl-6-azabicyclo[3.2.1]-octanamino)propionamido]-9(10H)-acridone]: the IC50 at 96 h in series [1] turned out to be 2500 nM; in series [2] it was 10000 nM; in series [3], 2500 nM; in series [4] it was 1900 nM. On telomerase, the IC50 was determined as 1770 nM.

As for `O=C(CCN1CCCC1)Nc1ccc(Nc2c3ccc(NC(=O)CCN4CCCC4)cc3nc3cc(NC(=O)CCN4CCCC4)ccc23)cc1` [JC-ACI-9, N-{9-[4′-(3-Pyrrolidin-1-yl-propionylamino)-phenylamino]}-3,6-bis(3-pyrrolidinopropionamido)acridine], the IC50 at 96 h in series [1] is 20000 nM; in series [2] it was 20000 nM; in series [3] it was above 25000 nM; in series [4] it was above 25000 nM. Further, the IC50 at telomerase was determined as 12 nM.

`CC1(C)CC2CC(C)(CN2CCC(=O)Nc2ccc3c(Nc4ccc(N)cc4)c4ccc(NC(=O)CCN5CC6(C)CC5CC(C)(C)C6)cc4nc3c2)C1` [JH-ACI-101, N-{9-[4′-(Amino)phenylamino]}-3,6-bis[(1,3,3-trimethyl-6-azabicyclo[3.2.1]-octanamino)propionamido]-acridine]: the IC50 at 96 h in series [1] stood at 2300 nM; in series [2], 2500 nM; in series [3], 1200 nM; in series [4], 1600 nM. Moreover, the IC50 on telomerase was determined as 160 nM.

For the molecule `CN(C)CCCNc1c2ccc(NC(=O)CCN3CCCC3)cc2nc2cc(NC(=O)CCN3CCCC3)ccc12` [JH-ACI-65, N-{9-[3-(N,N-Dimethyl)aminopropylamino]}-3,6-bis(3-pyrrolidinopropionamido)acridine], the IC50 at 96 h in series [1] is 17000 nM; in series [2], above 25000 nM; in series [3], 15800 nM; in series [4], above 25000 nM. In addition, the IC50 at telomerase came out at 60 nM.

In the case of `O=C(CCN1CCCC1)Nc1ccc2c(NCc3cccnc3)c3ccc(NC(=O)CCN4CCCC4)cc3nc2c1` [SB-ACI-13, N-[9-(Pyridin-3′-yl-methylamino)]-3,6-bis(3-pyrrolidinopropionamido)acridine], the IC50 at 96 h in series [1], in series [2], in series [3] and in series [4] was above 25000 nM each time. For the same molecule, the IC50 on telomerase was 66 nM.

`O=C(CCN1CCCC1)Nc1ccc2c(NC3CC3)c3ccc(NC(=O)CCN4CCCC4)cc3nc2c1` [JM-ACI-14, N-[9-(Cyclopropylamino)]-3,6-bis(3-pyrrolidinopropionamido)acridine]: the IC50 at 96 h in series [1] is above 25000 nM; in series [2], above 25000 nM; in series [3], above 25000 nM; in series [4], 19000 nM. The IC50 at telomerase came out at 50 nM.

Turning to `Nc1ccc(Nc2c3ccc(NC(=O)CCN4CCCC4)cc3nc3ccc(NC(=O)CCN4CCCC4)cc23)cc1` [JH-ACI-105, N-{9-[4′-(Amino)phenylamino]}-2,6-bis(3-pyrrolidinopropionamido)acridine], the IC50 at 96 h is 15800 nM in series [1], above 25000 nM in series [2], above 25000 nM in series [3] and above 25000 nM in series [4]. Moreover, the IC50 on telomerase came to 80 nM.

In the case of `CC(=O)c1ccc(Nc2c3ccc(NC(=O)CCN4CCCC4)cc3nc3cc(NC(=O)CCN4CCCC4)ccc23)cc1` [JH-ACI-90, N-[9-(4′-Acetylphenylamino)]-3,6-bis(3-pyrrolidinopropionamido)acridine], the IC50 at 96 h in series [1] was 1800 nM; in series [2], 2200 nM; in series [3], 3400 nM; in series [4] it was 3200 nM. In addition, the IC50 on telomerase was determined as 40 nM.

For the molecule `CSc1cccc(Nc2c3ccc(NC(=O)CCN4CCCC4)cc3nc3cc(NC(=O)CCN4CCCC4)ccc23)c1` [JC-ACI-5, N-{9-[3′-Methylsulfanyl-phenylamino]}-3,6-bis(3-Pyrrolidinopropionamido)acridine], the IC50 at 96 h in series [1] is 600 nM; in series [2], 1300 nM; in series [3], 3200 nM; in series [4], 2800 nM. Also, on telomerase, the IC50 amounted to 100 nM.
